“Also recorded” adds a separate entry of the source.
How the values were obtained:
HCT-116 (colon cancer) = assay: MTT cell viability assay, HCT-116; format: cell-based, human; details: for IC50: Homo sapiens, HCT-116, 72 h, MTT assay, 72 h of incubation; for Selectivity Index (SI) HCT-116: IC50 value toward HaCaT cells/IC50 value toward HCT-116
How it was run: (§1)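 HCT-116 and HeLa cells in DMEM/10% FBS exposed 72 h to compounds over 1–100 µM. Viability by MTT (0.5 mg/mL, 2 h, 37 °C), formazan dissolved in DMSO and read at 550 nm; mean ± SD of at least three independent experiments.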

MCF-7 (breast cancer) = assay: MTT cell viability assay, MCF-7; format: cell-based, human; details: for IC50: Homo sapiens, MCF7, 72 h, MTT assay, 72 h of incubation; for Selectivity Index (SI) MCF-7: IC50 value toward HaCaT cells/IC50 value toward MCF-7
How it was run: (§2)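 Cells in DMEM with 10% FBS, 3 × 10^3 per well, exposed to compounds at 1–100 µM for 72 h at 37 °C. MTT at 0.5 mg/mL for 2 h, formazan dissolved in DMSO and read at 550 nm. Mean ± SD of at least three independent experiments, each in triplicate.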

HeLa (cervical cancer) = assay: MTT cell viability assay, HeLa; format: cell-based, human; details: for IC50: Homo sapiens, HeLa, MTT assay, 72 h of incubation; for Selectivity Index (SI) HeLa: IC50 value toward HaCaT cells/IC50 value toward HeLa
How it was run: as §1

HCT-116, MCF-7 and HeLa = assay: MTT cytotoxicity, summary statements on all tested tumor cell lines together; format: cell-based, human; details: MTT 72 h
Protocol: Compounds 20–162 were evaluated in vitro for their effects on the viability of three cancer cell lines: HCT-116 (colon cancer), MCF-7 (breast cancer) and HeLa (cervical cancer), as well as the non-cancerous keratinocyte cell line (HaCaT). […] Analysis was performed using an MTT assay after 72 h of incubation.
(§3) Cell viability was examined using the MTT [3-(4,5-dimethylthiazol-2-yl)-2,5-diphenyltetrazolium bromide] assay. Cells were seeded in 96-well plates at a density of 3 × 10^3 cells/well and treated for 72 h with the tested compounds in the concentration range of 1–100 µM. Then, MTT (0.5 mg/mL) was added to the medium and cells were further incubated for 2 h at 37 °C. In the next stage, cells were lysed with DMSO and the absorbance of the formazan solution was measured at 550 nm with a plate reader (1420 multilabel counter, Victor, Jügesheim, Germany). The experiment was performed in triplicate. Values are expressed as the mean ± SD of at least three independent experiments. Cisplatin was used as a positive control.

[1] = test system: HaCaT (human keratinocyte cell line); assay: MTT cell viability assay, non-cancerous HaCaT; format: cell-based; details: Homo sapiens, HaCaT, 72 h, 72 h of incubation, non-cancerous keratinocytes
How it was run: as §2

[2] = test system: A2780 (ovarian carcinoma cell line); assay: MTT assay, wild-type p53 ovarian cancer cells A2780; format: cell-based; details: Homo sapiens, A2780, 72 h of incubation
Protocol: (§4) Thus, the ability of the selected compounds to exert cytotoxic activity toward cell lines harboring mutant p53 was examined. Compounds displaying a high selectivity index (Table 6) were selected for the analysis of their activity toward ovarian and breast cancer cells with wild-type p53 (A2780, MCF-7) and mutant p53 (SKOV-3, T47D).
as §3
(§5) Compounds 48, 62, 134, 138 and 140 were further examined toward MCF7 (breast cancer cell line, ATCC, HTB-22), T47D (breast cancer cell line, DSMZ ACC 739), A2780 (ovarian carcinoma cell line, ECACC, 93112519), and SKOV3 (ovarian carcinoma cell line, ATCC, HTB-77) cells. Cells were grown in Dulbecco’s Modified Eagle Medium (DMEM) supplemented with 10% fetal bovine serum (Thermo Fisher Scientific).

[3] = test system: SKOV3 (ovarian carcinoma cell line); assay: MTT assay, mutant p53 ovarian cancer cells SKOV-3; format: cell-based; details: Homo sapiens, SK-OV-3, 72 h of incubation
Protocol: as §4, §3, §5

[4] = test system: MCF7 (breast cancer cell line, ATCC, HTB-22); assay: MTT assay, wild-type p53 breast cancer cells MCF-7 (Table 11); format: cell-based, human; details: Homo sapiens, MCF7; 72 h of incubation, wild-type p53, second determination
Protocol: as §4, §3, §5

[5] = test system: T47D (breast cancer cell line); assay: MTT assay, mutant p53 breast cancer cells T47D; format: cell-based; details: Homo sapiens, T47D, 72 h of incubation
Protocol: as §4, §3, §5

MDM2-p53 interactions = assay: Western blot of MDM2 and p53 protein levels in MCF-7 cells; format: cell-based, human; details: 4 µM and 10 µM, 24-h incubation
Protocol: Thus, the effects of the examined compounds on the inhibition of MDM2-p53 interactions were examined. MDM2 and p53 protein levels were determined with Western blot analysis after the treatment of MCF-7 cells with compounds selected for their high selectivity index (48, 62, 134, 138, and 140). Compounds were examined at different concentrations (4 µM and 10 µM) following a 24-h incubation (Figure 7).
Proteins were transferred to an Immobilon-P PVDF membrane (Merck Millipore, Burlington, MA, USA). The membranes were incubated for 1 h using 5% low-fat milk solution in 1× TBS (50 mM Tris-Cl, pH 7.5, 150 mM NaCl) as a blocking buffer and then overnight at 4 °C in the same blocking solution containing one of the following antibodies: anti-MDM2 (rabbit, Sigma-Aldrich AB-166, Burlington, MA, USA), anti-p53 (rabbit, Sigma-Aldrich S15) or α-tubulin (rabbit, 11H10, Cell Signaling, Danvers, MA, USA). After washing (3 × 10 min in TBS), membranes were incubated for 2 h in room temperature with the adequate HRP-conjugated secondary antibody: goat anti-rabbit IgG (1:5000, Abcam, Cambridge, UK; cat. 97051). Membranes were developed using an HRP detection kit WesternBright Quantum (Advansta, San Jose, CA, USA; cat. K-12042).

Row | IC50 (HCT-116 (colon cancer)) [µM] | IC50 (MCF-7 (breast cancer)) [µM] | IC50 (HeLa (cervical cancer)) [µM] | IC50 [2] [µM] | IC50 [3] [µM] | IC50 [4] [µM] | IC50 [5] [µM] | SMILES | cytotoxic activity for all tested cell lines (in words) (HCT-116, MCF-7 and HeLa) | Selectivity Index (SI) HCT-116 (HCT-116 (colon cancer)) | Selectivity Index (SI) MCF-7 (MCF-7 (breast cancer)) | Selectivity Index (SI) HeLa (HeLa (cervical cancer)) | IC50 [1] [µM] | MDM2 and p53 protein levels (MDM2-p53 interactions)
1 | 170 ± 3 | 145 ± 7 | 153 ± 5 | – | – | – | – | Cc1cc(S(=O)(=O)N=C2NCCN2)c(SCc2nc(N)nc(N3CCN(C)CC3)n2)cc1Cl [Compound 30] | inactive | – | – | – | – | –
2 | 6 ± 0.1 | 7 ± 0.1 | 107 ± 1 | 3.9 ± 0.1 | 10.1 ± 0.1 | 10.4 ± 0.1 | 4.9 ± 0.1 | Cc1cc(S(=O)(=O)N=C2NCCN2Cc2ccccc2)c(SCc2nc(N)nc(N3CCN(c4ccc(Cl)cc4)CC3)n2)cc1Cl [Compound 62] | – | 5.3 | 4.5 | 0.3 | 32 ± 1 | no changes
3 | 168 ± 8 | 153 ± 5 | 140 ± 7 | – | – | – | – | Cc1cc(S(=O)(=O)N=C2NCCN2Cc2ccccc2)c(SCc2nc(N)nc(N3CCN(c4ccc([N+](=O)[O-])cc4)CC3)n2)cc1Cl [Compound 67] | inactive; also recorded: loss of activity | – | – | – | – | –
4 | 300 ± 18 | 490 ± 10 | 550 ± 21 | – | – | – | – | Cc1cc(S(=O)(=O)N=C2NCCN2Cc2ccccc2)c(SCc2nc(N)nc(N3CCN(S(=O)(=O)c4ccccc4)CC3)n2)cc1Cl [Compound 70] | loss of activity | – | – | – | – | –
5 | 155 ± 6 | 205 ± 4 | 265 ± 8 | – | – | – | – | Cc1ccc(S(=O)(=O)N2CCN(c3nc(N)nc(CSc4cc(Cl)c(C)cc4S(=O)(=O)N=C4NCCN4Cc4ccccc4)n3)CC2)cc1 [Compound 71] | loss of activity | – | – | – | 27 ± 1 | –
6 | 105 ± 4 | 10 ± 0.5 | 115 ± 2 | – | – | – | – | Cc1cc(S(=O)(=O)N=C2NCCN2Cc2ccc(C(F)(F)F)cc2)c(SCc2nc(N)nc(N(C)C)n2)cc1Cl [Compound 118] | inactive | – | – | – | > 500 | –
7 | 5 ± 0.2 | 11 ± 0.1 | 10 ± 0.6 | 3.9 ± 0.1 | 5.7 ± 0.1 | 7.8 ± 0.1 | 3.2 ± 0.1 | Cc1cc(S(=O)(=O)N=C2NCCN2Cc2ccc(C(F)(F)F)cc2)c(SCc2nc(N)nc(N3CCN(c4ccc(C(F)(F)F)cc4)CC3)n2)cc1Cl [Compound 134] | – | 4.4 | 2.0 | 2.2 | 22 ± 1 | no changes
8 | 6 ± 0.2 | 9 ± 0.5 | 9 ± 0.6 | 2.2 ± 0.1 | 5.8 ± 0.1 | 8.2 ± 0.1 | 4.4 ± 0.1 | Cc1cc(S(=O)(=O)N=C2NCCN2Cc2ccc(C(F)(F)F)cc2)c(SCc2nc(N)nc(N3CCN(c4ccc(Cl)c(Cl)c4)CC3)n2)cc1Cl [Compound 138] | – | – | – | – | 22 ± 1 | no changes

Source: article PMC9267128, “New 2-[(4-Amino-6-N-substituted-1,3,5-triazin-2-yl)methylthio]-N-(imidazolidin-2-ylidene)-4-chloro-5-methylbenzenesulfonamide Derivatives, Design, Synthesis and Anticancer Evaluation” (International Journal of Molecular Sciences, 2022)
